This note sets out measurements from US20220259593A1, “CONTROL OF MAMMALIAN GENE DOSAGE USING CRISPR” (The Regents of the University of California, priority 2019, published 2022).

Data set [1] relates to K562 CRISPRi cells. As to the kind of experiment: Perturb-seq pooled growth measurement (sgRNA counts, growth phenotype γ, relative activity). The class given is cell-based, human. The following applies: for gamma_day5 / gamma_day10: pooled growth phenotype γ of the Perturb-seq sgRNA; for gamma_day5: day 5, K562 CRISPRi cells; for gamma_day10: day 10, K562 CRISPRi cells; for relative_activity_day5: γ relative to perfectly matched sgRNA (_00) of the same gene, day 5; for Perturb-seq pooled growth sgRNA counts, d5 / Perturb-seq pooled growth sgRNA counts, d10 / Perturb-seq pooled growth sgRNA counts, T0: sequencing read counts; for Perturb-seq pooled growth sgRNA counts, d5: 5 days of growth (day seven after transduction); for Perturb-seq pooled growth sgRNA counts, d10: 10 days of growth (day twelve after transduction); for Perturb-seq pooled growth sgRNA counts, T0: T0 = day two after transduction. The method in brief: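 sgRNA abundance was sequenced from genomic DNA of the same transduced population sampled on days two, seven and twelve. Phenotype γ compares normalized day seven and twelve counts with day two. Day-seven values (five days of growth) define relative sgRNA activity.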

The subject of data set [2] is K562 CRISPRi cells. The description is as above. As to conditions: γ relative to perfectly matched sgRNA (_00) of the same gene, day 10. The class given is cell-based, human.

In data set [1], “ALDOA_ + _30077139.23-P1P2_00 (guide GGTCACCAGGACCCCTTCTG; listed as DNA, chemistry not fully specified)” returned a gamma_day5 of −0.4127, a gamma_day10 of −0.3665 and a relative_activity_day5 of 1. The relative_activity_day10 in data set [2] is on record as 1.

In data set [1], “ALDOA_ + _30077139.23-P1P2_06 (guide GGTCACCAGGATCCCTTCTG; listed as DNA, chemistry not fully specified)” had a gamma_day5 of −0.3967, a gamma_day10 of −0.3485 and a relative_activity_day5 of 0.9611. Besides, the relative_activity_day10 in data set [2] is 0.951.

Regarding “ALDOA_ + _30077139.23-P1P2_07 (guide GGTCACCAGGCCCCCTTCTG; listed as DNA, chemistry not fully specified)”, in data set [1], the gamma_day5 is −0.3609, the gamma_day10 is listed as −0.3351 and the relative_activity_day5 is 0.8744. The substance also showed a relative_activity_day10 in data set [2] of 0.9143.

In data set [1], “ALDOA_ + _30077139.23-P1P2_13 (guide GGTCACCAGGACCCCTTTTG; listed as DNA, chemistry not fully specified)” registered a gamma_day5 of 0.01706, a gamma_day10 of −0.0002203 and a relative_activity_day5 of −0.04134. Besides, in data set [2], the relative_activity_day10 is listed as 0.0006011.

In the case of “ALDOA_ + _30077139.23-P1P2_14 (guide GGTCACCAGGACCGCTTCTG; listed as DNA, chemistry not fully specified)”, in data set [1], the gamma_day5 was −0.1752, the gamma_day10 was −0.1566 and the relative_activity_day5 is given as 0.4246. The relative_activity_day10 in data set [2] is listed as 0.4274.

As to “ATP5E_ −_57607036.23-P1P2_00 (guide GGTGTCCAGGGGCACTCTGT; listed as DNA, chemistry not fully specified)”, in data set [1], the gamma_day5 is given as −0.1769, the gamma_day10 is reported as −0.2247 and the relative_activity_day5 came out at 1. In addition, the relative_activity_day10 in data set [2] was 1.

For the substance “ATP5E_ −_57607036.23-P1P2_01 (guide GGTGTCCTGGGGCACTCTGT; listed as DNA, chemistry not fully specified)”, in data set [1], the gamma_day5 is recorded as −0.2097, the gamma_day10 is given as −0.2284 and the relative_activity_day5 is 1.185. This substance also showed a relative_activity_day10 in data set [2] of 1.016.

With “ATP5E_ −_57607036.23-P1P2_04 (guide GGTGTCCAGGAGCACTCTGT; listed as DNA, chemistry not fully specified)”, in data set [1], the gamma_day5 is reported as −0.09793, the gamma_day10 is −0.1204 and the relative_activity_day5 was 0.5536. In data set [2], this substance returned a relative_activity_day10 of 0.5358.

In data set [1], “ATP5E_ −_57607036.23-P1P2_14 (guide GGTGTCCAGGGGCACTGTGT; listed as DNA, chemistry not fully specified)” showed a gamma_day5 of −0.01233, a gamma_day10 of −0.03506 and a relative_activity_day5 of 0.0697. The same substance gave a relative_activity_day10 in data set [2] of 0.156.

In data set [1], “ATP5E_ −_57607036.23-P1P2_16 (guide GGTGTCCAGGGGCGCTCTGT; listed as DNA, chemistry not fully specified)” came in with a gamma_day5 of −0.1616, a gamma_day10 of −0.1656 and a relative_activity_day5 of 0.9135. Also, in data set [2], the relative_activity_day10 is listed as 0.7368.

Turning to “BCR_ + _23523092.23-P1P2_00 (guide GCGCGCGGGGCCCGTCTCAG; listed as DNA, chemistry not fully specified)”, in data set [1], the gamma_day5 is reported as −0.8426, the gamma_day10 is −0.5068 and the relative_activity_day5 was 1. This substance also yielded a relative_activity_day10 in data set [2] of 1.

On to “BCR_ + _23523092.23-P1P2_04 (guide GCGCGCGGAGCCCGTCTCAG; listed as DNA, chemistry not fully specified)”, for which, in data set [1], the gamma_day5 was −0.7401, the gamma_day10 is −0.418 and the relative_activity_day5 was 0.8783. The substance further gave a relative_activity_day10 in data set [2] of 0.8249.

Turning to “BCR_ + _23523092.23-P1P2_05 (guide GCGCGCGGCGCCCGTCTCAG; listed as DNA, chemistry not fully specified)”, in data set [1], the gamma_day5 is −0.3535, the gamma_day10 is reported as −0.2247 and the relative_activity_day5 worked out at 0.4196. The relative_activity_day10 in data set [2] is given as 0.4434.

On to “TUBB_+_30688126.23-P1_06: sgRNA targeting TUBB, GCGGCAGGACGGTTCTGAGA, SEQ ID NO: 107 (listed as DNA, chemistry not fully specified)”, for which, in data set [1], the “Perturb-seq pooled growth sgRNA counts, d5” value came to 1983; the “Perturb-seq pooled growth sgRNA counts, d10” value is 1158; the “Perturb-seq pooled growth sgRNA counts, T0” value was determined as 6235.

“TUBB_+_30688126.23-P1_10: sgRNA targeting TUBB, GCGGCAGGAAGGTTCAGAGA, SEQ ID NO: 109 (listed as DNA, chemistry not fully specified)”: in data set [1], the “Perturb-seq pooled growth sgRNA counts, d5” value was 9877; the “Perturb-seq pooled growth sgRNA counts, d10” value is 12737; the “Perturb-seq pooled growth sgRNA counts, T0” value was found to be 7085.

In the case of “non-targeting_00001: non-targeting negative control sgRNA, GTGCACCCGGCTAGGACCGG, SEQ ID NO: 161 (listed as DNA, chemistry not fully specified) [reference compound]”, in data set [1], the “Perturb-seq pooled growth sgRNA counts, d5” value is 18946; the “Perturb-seq pooled growth sgRNA counts, d10” value was found to be 31944; the “Perturb-seq pooled growth sgRNA counts, T0” value was found to be 10415.

On to “non-targeting_00028: non-targeting negative control sgRNA, GGTGGCCTTTGCAATTGGCG, SEQ ID NO: 162 (listed as DNA, chemistry not fully specified) [reference compound]”, for which, in data set [1], the “Perturb-seq pooled growth sgRNA counts, d5” value worked out at 20289; the “Perturb-seq pooled growth sgRNA counts, d10” value came to 35652; the “Perturb-seq pooled growth sgRNA counts, T0” value turned out to be 8871.

Turning to “non-targeting_00054: non-targeting negative control sgRNA, GGGCCTGGACGAGCCTAAAA, SEQ ID NO: 163 (listed as DNA, chemistry not fully specified) [reference compound]”, in data set [1], the “Perturb-seq pooled growth sgRNA counts, d5” value came to 29818; the “Perturb-seq pooled growth sgRNA counts, d10” value is 49855; the “Perturb-seq pooled growth sgRNA counts, T0” value stood at 12360.

For “non-targeting_00089: non-targeting negative control sgRNA, GGGGTGAGGGTCCAATTCGG, SEQ ID NO: 164 (listed as DNA, chemistry not fully specified) [reference compound]”, in data set [1], the “Perturb-seq pooled growth sgRNA counts, d5” value amounted to 27748; the “Perturb-seq pooled growth sgRNA counts, d10” value turned out to be 44919; the “Perturb-seq pooled growth sgRNA counts, T0” value is given as 10841.

Take “non-targeting_00217: non-targeting negative control sgRNA, GTGAACTCAAAAATCCCGAC, SEQ ID NO: 165 (listed as DNA, chemistry not fully specified) [reference compound]”: in data set [1], the “Perturb-seq pooled growth sgRNA counts, d5” value is recorded as 25185; the “Perturb-seq pooled growth sgRNA counts, d10” value was 42962; the “Perturb-seq pooled growth sgRNA counts, T0” value amounted to 10286.

Turning to “non-targeting_00283: non-targeting negative control sgRNA, GGGCCGACGGATAGGAGGGA, SEQ ID NO: 166 (listed as DNA, chemistry not fully specified) [reference compound]”, in data set [1], the “Perturb-seq pooled growth sgRNA counts, d5” value amounted to 18547; the “Perturb-seq pooled growth sgRNA counts, d10” value is reported as 27936; the “Perturb-seq pooled growth sgRNA counts, T0” value was 8188.

Regarding “non-targeting_00406: non-targeting negative control sgRNA, GGCGCCGGACTGGACCTCGA, SEQ ID NO: 167 (listed as DNA, chemistry not fully specified) [reference compound]”, in data set [1], the “Perturb-seq pooled growth sgRNA counts, d5” value is 24099; the “Perturb-seq pooled growth sgRNA counts, d10” value stood at 39839; the “Perturb-seq pooled growth sgRNA counts, T0” value was 9974.

Regarding “non-targeting_00527: non-targeting negative control sgRNA, GTGGGAGCAGATCAAGACTC, SEQ ID NO: 168 (listed as DNA, chemistry not fully specified) [reference compound]”, in data set [1], the “Perturb-seq pooled growth sgRNA counts, d5” value is 16865; the “Perturb-seq pooled growth sgRNA counts, d10” value was determined as 27634; the “Perturb-seq pooled growth sgRNA counts, T0” value is recorded as 6840.

For “non-targeting_00802: non-targeting negative control sgRNA, GCACGACGCTCCGGCACGCG, SEQ ID NO: 169 (listed as DNA, chemistry not fully specified) [reference compound]”, in data set [1], the “Perturb-seq pooled growth sgRNA counts, d5” value is on record as 16759; the “Perturb-seq pooled growth sgRNA counts, d10” value is 27842; the “Perturb-seq pooled growth sgRNA counts, T0” value is given as 7096.

Regarding “non-targeting_01040: non-targeting negative control sgRNA, GTACGGCATGGCGCACTGCG, SEQ ID NO: 170 (listed as DNA, chemistry not fully specified) [reference compound]”, in data set [1], the “Perturb-seq pooled growth sgRNA counts, d5” value is listed as 0; the “Perturb-seq pooled growth sgRNA counts, d10” value came to 0; the “Perturb-seq pooled growth sgRNA counts, T0” value is 0.
